Experimental data reported in patent US11332771B2, “Serum-free cell culture medium” (Regeneron Pharmaceuticals, Inc., priority 2013, dated 2022).
Counter-ions that a name gives are not always drawn. Like-named read-outs stand apart in the source and are kept apart here.

Assays:
[1] = system: recombinant antibody producing cell line derived from CHO K1 cells; assay: Cell doubling time in logarithmic growth phase, seed train cultures passaged over 14 days; type: cell-based, Chinese hamster; conditions: ornithine.HCl 100 mg/L, with or without putrescine.2HCl 115 mg/L
Protocol: The doubling time of a recombinant antibody producing cell line derived from CHO K1 cells in logarithmic growth phase was determined under various cell culture media conditions. Seed train cultures were passaged at 36.5° C. in 250 mL shaker flasks over a period of 14 days in each of three separate media: Medium 1, Medium 2, and Medium 2 containing soy hydrolysate (Medium 2+ Soy). Aliquots of 1 mL were removed from each condition on Day 0 and at the time of seed train passage (every 2 or 3 days), and viable cell counts were conducted using trypan blue exclusion on a CDV™ instrument (Nova Biomedical).

[2] = system: recombinant antibody producing cell line derived from CHO K1; assay: Antibody titer in Medium 3 with various amounts of ornithine.HCl, 50 mL TubeSpin Bioreactors; type: cell-based, Chinese hamster; conditions: Medium 3, three days, all three levels of ornithine supplementation, N=3
From the text: The results are depicted in Table 6.

[3] = system: CHO-K1 derived cell line; conditions: for Average seven-day antibody titer: 100 mg/L ornithine.HCl, with or without 115 mg/L putrescine.2HCl
Protocol: We examined the expression and secretion of recombinant IgG by a CHO-K1 derived cell line. In this experiment, the average antibody titer was determined at day seven in culture under various media formats.

NCCC[C@H](N)C(=O)O [Ornithine, L-ornithine.HCl] was tested, and the Cell doubling time ([1]; Medium 1) was 23 h, the Cell doubling time ([1]; Medium 2 + Soy) was 20.5 h and the Cell doubling time ([1]; Medium 2) was 21 h. The “Improvement of antibody titer on the average” value [2] was “more than 50%”, the “Average seven-day antibody titer” value ([3]; Medium 1) was 0.94 g/L and the “Average seven-day antibody titer” value ([3]; Medium 2 + Soy) was 0.98 g/L. For the same compound, the “Average seven-day antibody titer” value ([3]; Medium 2) was 0.65 g/L and the “Increase in protein titer” value ([3]; day seven, in all cases (Medium 1, Medium 2, Medium 2+ Soy), versus low putrescine 0.4 mg/L) was “at least about two-fold”.
